# Test results reported in ChEMBL document CHEMBL1909046, “DrugMatrix in vitro pharmacology data”.
# pIC50, pKi: −log10 of the molar value.
# Biological target: Sodium-dependent noradrenaline transporter (Homo sapiens, UniProt P23975)
# Assay: DRUGMATRIX: Norepinephrine Transporter radioligand binding (ligand: [125I] RTI-55)
# Assay type: cell membranes, MDCK, Membrane
# Conditions: mdck; Not Active = under 50% inhibition at 10 µM
# Sequence of Sodium-dependent noradrenaline transporter (P23975 whole entry): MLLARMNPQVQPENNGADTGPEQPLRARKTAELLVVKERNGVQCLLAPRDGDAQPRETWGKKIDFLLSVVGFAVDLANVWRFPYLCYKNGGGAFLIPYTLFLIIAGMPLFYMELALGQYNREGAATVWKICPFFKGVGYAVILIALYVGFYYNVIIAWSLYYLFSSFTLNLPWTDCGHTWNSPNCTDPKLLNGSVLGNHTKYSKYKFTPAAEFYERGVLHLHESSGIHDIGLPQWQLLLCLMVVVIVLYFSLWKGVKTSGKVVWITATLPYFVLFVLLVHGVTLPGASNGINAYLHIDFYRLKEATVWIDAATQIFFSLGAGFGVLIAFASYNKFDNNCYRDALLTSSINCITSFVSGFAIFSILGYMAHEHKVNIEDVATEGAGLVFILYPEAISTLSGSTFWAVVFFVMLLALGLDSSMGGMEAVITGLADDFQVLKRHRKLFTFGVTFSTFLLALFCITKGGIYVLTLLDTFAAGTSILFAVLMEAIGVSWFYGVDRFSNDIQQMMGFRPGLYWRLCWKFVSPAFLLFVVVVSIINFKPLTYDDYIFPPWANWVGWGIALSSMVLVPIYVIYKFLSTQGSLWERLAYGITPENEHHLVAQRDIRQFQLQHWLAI
Molecule,IC50,Ki
CN(CCOc1ccc(CC2SC(=O)NC2=O)cc1)c1ccccn1 (centres undefined) [ROSIGLITAZONE],Not Active,
C#CCN(C)[C@H](C)Cc1ccccc1 [SELEGILINE],Not Active,
Nc1ccc(S(=O)(=O)Nc2ncccn2)cc1 [SULFADIAZINE],Not Active,
COc1ncnc(NS(=O)(=O)c2ccc(N)cc2)c1OC [SULFADOXINE],Not Active,
C[C@@H]1C[C@H]2[C@@H]3CCC4=CC(=O)C=C[C@]4(C)C3=CC[C@]2(C)[C@H]1C(=O)CN1CCN(c2cc(N3CCCC3)nc(N3CCCC3)n2)CC1 [TIRILAZAD],Not Active,
NC[C@H]1O[C@H](O[C@H]2[C@H](O)[C@@H](O[C@H]3O[C@H](CO)[C@@H](O)[C@H](N)[C@H]3O)[C@H](N)C[C@@H]2N)[C@H](N)C[C@@H]1O [TOBRAMYCIN],Not Active,
COc1cc(C(=O)NS(=O)(=O)c2ccccc2C)ccc1Cc1cn(C)c2ccc(NC(=O)OC3CCCC3)cc12 [ZAFIRLUKAST],Not Active,
STANNOUS FLUORIDE,Not Active,Not Active

# Same assay, conditions: mdck; Not Active = under 50% inhibition at 10 µM; read-out: IC50
row,Molecule,pIC50
1,THIMEROSAL,6.03

# Same assay, conditions: mdck; Not Active = under 50% inhibition at 10 µM; read-out: Ki
row,Molecule,pKi
1,THIMEROSAL,6.03

# Tested on: not listed separately
# Assay: DRUGMATRIX: Tumor Necrosis Factor (TNF), Non-Selective radioligand binding (ligand: [125I] TNF-alpha)
# Assay type: cell membranes, Membrane
# Conditions: u-937; Not Active = under 50% inhibition at 10 µM
Molecule,IC50,Ki
CN(CCOc1ccc(CC2SC(=O)NC2=O)cc1)c1ccccn1 (centres undefined) [ROSIGLITAZONE],Not Active,Not Active
C#CCN(C)[C@H](C)Cc1ccccc1 [SELEGILINE],Not Active,Not Active
Nc1ccc(S(=O)(=O)Nc2ncccn2)cc1 [SULFADIAZINE],Not Active,Not Active
COc1ncnc(NS(=O)(=O)c2ccc(N)cc2)c1OC [SULFADOXINE],Not Active,Not Active
C[C@@H]1C[C@H]2[C@@H]3CCC4=CC(=O)C=C[C@]4(C)C3=CC[C@]2(C)[C@H]1C(=O)CN1CCN(c2cc(N3CCCC3)nc(N3CCCC3)n2)CC1 [TIRILAZAD],Not Active,Not Active
NC[C@H]1O[C@H](O[C@H]2[C@H](O)[C@@H](O[C@H]3O[C@H](CO)[C@@H](O)[C@H](N)[C@H]3O)[C@H](N)C[C@@H]2N)[C@H](N)C[C@@H]1O [TOBRAMYCIN],Not Active,Not Active
COc1cc(C(=O)NS(=O)(=O)c2ccccc2C)ccc1Cc1cn(C)c2ccc(NC(=O)OC3CCCC3)cc12 [ZAFIRLUKAST],Not Active,Not Active
STANNOUS FLUORIDE,Not Active,Not Active
THIMEROSAL,Not Active,Not Active

# Biological target: Estrogen receptor beta (Homo sapiens, UniProt Q92731); note: in other assays of this panel Not Active means under 50% inhibition at 10 µM
# Conditions: sf9
# Sequence of Estrogen receptor beta (Q92731 whole entry): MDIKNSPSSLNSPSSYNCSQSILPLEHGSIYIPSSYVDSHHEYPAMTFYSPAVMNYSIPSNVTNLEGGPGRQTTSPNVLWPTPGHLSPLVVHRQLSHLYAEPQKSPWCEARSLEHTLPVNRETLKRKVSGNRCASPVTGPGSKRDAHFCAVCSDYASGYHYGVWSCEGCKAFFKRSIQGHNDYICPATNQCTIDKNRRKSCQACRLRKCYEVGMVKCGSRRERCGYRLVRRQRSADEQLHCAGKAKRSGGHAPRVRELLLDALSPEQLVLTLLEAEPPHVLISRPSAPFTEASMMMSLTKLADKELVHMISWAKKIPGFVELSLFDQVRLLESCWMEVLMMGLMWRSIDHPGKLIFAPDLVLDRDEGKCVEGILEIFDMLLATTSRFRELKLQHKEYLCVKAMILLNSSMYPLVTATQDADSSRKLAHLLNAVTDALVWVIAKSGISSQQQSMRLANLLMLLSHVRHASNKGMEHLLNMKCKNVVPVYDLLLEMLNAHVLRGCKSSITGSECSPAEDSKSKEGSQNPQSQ
Molecule,IC50,Ki
CN(CCOc1ccc(CC2SC(=O)NC2=O)cc1)c1ccccn1 (centres undefined) [ROSIGLITAZONE],Not Active,
C#CCN(C)[C@H](C)Cc1ccccc1 [SELEGILINE],Not Active,
Nc1ccc(S(=O)(=O)Nc2ncccn2)cc1 [SULFADIAZINE],Not Active,
COc1ncnc(NS(=O)(=O)c2ccc(N)cc2)c1OC [SULFADOXINE],Not Active,
C[C@@H]1C[C@H]2[C@@H]3CCC4=CC(=O)C=C[C@]4(C)C3=CC[C@]2(C)[C@H]1C(=O)CN1CCN(c2cc(N3CCCC3)nc(N3CCCC3)n2)CC1 [TIRILAZAD],Not Active,
NC[C@H]1O[C@H](O[C@H]2[C@H](O)[C@@H](O[C@H]3O[C@H](CO)[C@@H](O)[C@H](N)[C@H]3O)[C@H](N)C[C@@H]2N)[C@H](N)C[C@@H]1O [TOBRAMYCIN],Not Active,
COc1cc(C(=O)NS(=O)(=O)c2ccccc2C)ccc1Cc1cn(C)c2ccc(NC(=O)OC3CCCC3)cc12 [ZAFIRLUKAST],Not Active,
STANNOUS FLUORIDE,Not Active,Not Active
THIMEROSAL,Not Active,Not Active

# Biological target: T1, Muscarinic acetylcholine receptor M2 (Homo sapiens, UniProt P08172); note: in other assays of this panel Not Active means under 50% inhibition at 10 µM
# T1 sequence (P08172 whole entry): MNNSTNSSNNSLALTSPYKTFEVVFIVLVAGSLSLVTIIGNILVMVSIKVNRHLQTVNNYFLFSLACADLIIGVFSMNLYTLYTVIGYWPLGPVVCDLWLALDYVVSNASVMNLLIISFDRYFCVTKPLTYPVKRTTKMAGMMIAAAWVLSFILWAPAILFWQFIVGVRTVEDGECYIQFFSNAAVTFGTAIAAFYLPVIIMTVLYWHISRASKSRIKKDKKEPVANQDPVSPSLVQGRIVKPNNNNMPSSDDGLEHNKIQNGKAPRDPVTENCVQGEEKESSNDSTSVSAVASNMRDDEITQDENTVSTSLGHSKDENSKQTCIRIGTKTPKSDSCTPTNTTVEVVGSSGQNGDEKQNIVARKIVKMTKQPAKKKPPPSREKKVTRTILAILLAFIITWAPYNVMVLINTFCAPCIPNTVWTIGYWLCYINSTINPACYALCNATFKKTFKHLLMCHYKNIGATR
# Assay type: cell membranes, CHO-K1, Membrane
# Conditions: cho-k1
Molecule,IC50,Ki
CN(CCOc1ccc(CC2SC(=O)NC2=O)cc1)c1ccccn1 (centres undefined) [ROSIGLITAZONE],Not Active,
C#CCN(C)[C@H](C)Cc1ccccc1 [SELEGILINE],Not Active,
Nc1ccc(S(=O)(=O)Nc2ncccn2)cc1 [SULFADIAZINE],Not Active,
COc1ncnc(NS(=O)(=O)c2ccc(N)cc2)c1OC [SULFADOXINE],Not Active,
C[C@@H]1C[C@H]2[C@@H]3CCC4=CC(=O)C=C[C@]4(C)C3=CC[C@]2(C)[C@H]1C(=O)CN1CCN(c2cc(N3CCCC3)nc(N3CCCC3)n2)CC1 [TIRILAZAD],Not Active,
NC[C@H]1O[C@H](O[C@H]2[C@H](O)[C@@H](O[C@H]3O[C@H](CO)[C@@H](O)[C@H](N)[C@H]3O)[C@H](N)C[C@@H]2N)[C@H](N)C[C@@H]1O [TOBRAMYCIN],Not Active,
COc1cc(C(=O)NS(=O)(=O)c2ccccc2C)ccc1Cc1cn(C)c2ccc(NC(=O)OC3CCCC3)cc12 [ZAFIRLUKAST],Not Active,
STANNOUS FLUORIDE,Not Active,Not Active
THIMEROSAL,Not Active,Not Active

# Biological target: T2, Interstitial collagenase (Homo sapiens, UniProt P03956);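 note: MMP-1 enzyme inhibition assay using a peptide substrate; in other assays of this panel Not Active means under 50% inhibition at 10 µM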
# T2 sequence (P03956 whole entry): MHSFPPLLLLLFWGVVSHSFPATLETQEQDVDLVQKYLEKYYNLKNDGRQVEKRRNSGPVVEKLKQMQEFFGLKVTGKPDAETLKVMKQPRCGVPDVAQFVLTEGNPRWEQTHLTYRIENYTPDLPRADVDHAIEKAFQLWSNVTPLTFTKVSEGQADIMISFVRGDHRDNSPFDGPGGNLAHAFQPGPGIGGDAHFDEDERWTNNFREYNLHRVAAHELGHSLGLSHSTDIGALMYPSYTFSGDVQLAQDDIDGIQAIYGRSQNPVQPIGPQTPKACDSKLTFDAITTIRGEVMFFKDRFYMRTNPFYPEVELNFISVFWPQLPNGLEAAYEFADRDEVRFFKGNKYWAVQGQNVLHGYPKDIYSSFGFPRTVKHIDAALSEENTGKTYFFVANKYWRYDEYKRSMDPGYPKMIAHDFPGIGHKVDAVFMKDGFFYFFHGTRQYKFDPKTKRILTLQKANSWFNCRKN
# Assay type: tissue-based, Rheumatoid synovial fibroblasts
# Conditions: not given
Molecule,IC50,Ki
CN(CCOc1ccc(CC2SC(=O)NC2=O)cc1)c1ccccn1 (centres undefined) [ROSIGLITAZONE],Not Active,
C#CCN(C)[C@H](C)Cc1ccccc1 [SELEGILINE],Not Active,
Nc1ccc(S(=O)(=O)Nc2ncccn2)cc1 [SULFADIAZINE],Not Active,
COc1ncnc(NS(=O)(=O)c2ccc(N)cc2)c1OC [SULFADOXINE],Not Active,
C[C@@H]1C[C@H]2[C@@H]3CCC4=CC(=O)C=C[C@]4(C)C3=CC[C@]2(C)[C@H]1C(=O)CN1CCN(c2cc(N3CCCC3)nc(N3CCCC3)n2)CC1 [TIRILAZAD],Not Active,
NC[C@H]1O[C@H](O[C@H]2[C@H](O)[C@@H](O[C@H]3O[C@H](CO)[C@@H](O)[C@H](N)[C@H]3O)[C@H](N)C[C@@H]2N)[C@H](N)C[C@@H]1O [TOBRAMYCIN],Not Active,
COc1cc(C(=O)NS(=O)(=O)c2ccccc2C)ccc1Cc1cn(C)c2ccc(NC(=O)OC3CCCC3)cc12 [ZAFIRLUKAST],Not Active,
STANNOUS FLUORIDE,Not Active,Not Active
THIMEROSAL,Not Active,Not Active

# Biological target: Cytochrome P450 2C9 (Homo sapiens, UniProt P11712); note: in other assays of this panel Not Active means under 50% inhibition at 10 µM
# Conditions: bti-tn-5b1-4
# Sequence of Cytochrome P450 2C9 (P11712 whole entry): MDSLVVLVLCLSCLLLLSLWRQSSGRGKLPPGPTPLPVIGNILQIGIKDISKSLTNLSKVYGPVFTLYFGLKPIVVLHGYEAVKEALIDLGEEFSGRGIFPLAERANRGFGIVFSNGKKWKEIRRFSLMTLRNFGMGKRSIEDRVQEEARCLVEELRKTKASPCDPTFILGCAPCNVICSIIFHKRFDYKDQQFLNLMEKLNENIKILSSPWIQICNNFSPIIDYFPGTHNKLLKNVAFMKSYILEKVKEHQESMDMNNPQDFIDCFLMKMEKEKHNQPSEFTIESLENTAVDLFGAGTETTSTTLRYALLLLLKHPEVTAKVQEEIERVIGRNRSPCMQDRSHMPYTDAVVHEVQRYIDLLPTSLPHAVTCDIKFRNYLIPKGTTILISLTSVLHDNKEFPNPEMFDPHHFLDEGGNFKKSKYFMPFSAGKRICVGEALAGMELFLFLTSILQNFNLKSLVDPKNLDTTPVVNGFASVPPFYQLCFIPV
Molecule,IC50,Ki
CN(CCOc1ccc(CC2SC(=O)NC2=O)cc1)c1ccccn1 (centres undefined) [ROSIGLITAZONE],Not Active,Not Active
C#CCN(C)[C@H](C)Cc1ccccc1 [SELEGILINE],Not Active,Not Active
Nc1ccc(S(=O)(=O)Nc2ncccn2)cc1 [SULFADIAZINE],Not Active,Not Active
COc1ncnc(NS(=O)(=O)c2ccc(N)cc2)c1OC [SULFADOXINE],Not Active,Not Active
C[C@@H]1C[C@H]2[C@@H]3CCC4=CC(=O)C=C[C@]4(C)C3=CC[C@]2(C)[C@H]1C(=O)CN1CCN(c2cc(N3CCCC3)nc(N3CCCC3)n2)CC1 [TIRILAZAD],Not Active,Not Active
NC[C@H]1O[C@H](O[C@H]2[C@H](O)[C@@H](O[C@H]3O[C@H](CO)[C@@H](O)[C@H](N)[C@H]3O)[C@H](N)C[C@@H]2N)[C@H](N)C[C@@H]1O [TOBRAMYCIN],Not Active,Not Active
STANNOUS FLUORIDE,Not Active,Not Active
THIMEROSAL,Not Active,Not Active

# Biological target: T3, B2 bradykinin receptor (Homo sapiens, UniProt P30411); note: in other assays of this panel Not Active means under 50% inhibition at 10 µM
# T3 sequence (P30411 whole entry): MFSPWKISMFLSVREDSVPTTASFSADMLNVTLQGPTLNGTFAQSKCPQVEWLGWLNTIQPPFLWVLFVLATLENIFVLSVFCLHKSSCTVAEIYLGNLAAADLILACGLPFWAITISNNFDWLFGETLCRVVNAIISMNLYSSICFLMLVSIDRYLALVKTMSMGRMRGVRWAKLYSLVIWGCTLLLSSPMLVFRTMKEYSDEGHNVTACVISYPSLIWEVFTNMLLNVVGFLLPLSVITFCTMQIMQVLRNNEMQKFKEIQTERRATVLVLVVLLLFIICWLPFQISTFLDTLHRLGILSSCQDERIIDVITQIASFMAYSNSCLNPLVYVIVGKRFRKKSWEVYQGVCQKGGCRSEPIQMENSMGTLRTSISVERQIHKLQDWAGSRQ
# Assay type: cell membranes, Membrane
# Conditions: chem-1
Molecule,IC50,Ki
CN(CCOc1ccc(CC2SC(=O)NC2=O)cc1)c1ccccn1 (centres undefined) [ROSIGLITAZONE],Not Active,
C#CCN(C)[C@H](C)Cc1ccccc1 [SELEGILINE],Not Active,
Nc1ccc(S(=O)(=O)Nc2ncccn2)cc1 [SULFADIAZINE],Not Active,
COc1ncnc(NS(=O)(=O)c2ccc(N)cc2)c1OC [SULFADOXINE],Not Active,
C[C@@H]1C[C@H]2[C@@H]3CCC4=CC(=O)C=C[C@]4(C)C3=CC[C@]2(C)[C@H]1C(=O)CN1CCN(c2cc(N3CCCC3)nc(N3CCCC3)n2)CC1 [TIRILAZAD],Not Active,
NC[C@H]1O[C@H](O[C@H]2[C@H](O)[C@@H](O[C@H]3O[C@H](CO)[C@@H](O)[C@H](N)[C@H]3O)[C@H](N)C[C@@H]2N)[C@H](N)C[C@@H]1O [TOBRAMYCIN],Not Active,
COc1cc(C(=O)NS(=O)(=O)c2ccccc2C)ccc1Cc1cn(C)c2ccc(NC(=O)OC3CCCC3)cc12 [ZAFIRLUKAST],Not Active,
STANNOUS FLUORIDE,Not Active,Not Active
THIMEROSAL,Not Active,Not Active
